Measured values as given in US8952157B2, “Apoptosis-inducing agents for the treatment of cancer and immune and autoimmune diseases” (AbbVie Inc., priority 2008, dated 2015).

What follows are compounds tested against GST-Bcl-2 (Homo sapiens (Human), UniProt P10415) (assay: Time Resolved-Fluorescence Resonance Energy Transfer (TR-FRET) Bcl-2 binding assay). Conditions: not given.
GST-Bcl-2, sequence (P10415 whole entry): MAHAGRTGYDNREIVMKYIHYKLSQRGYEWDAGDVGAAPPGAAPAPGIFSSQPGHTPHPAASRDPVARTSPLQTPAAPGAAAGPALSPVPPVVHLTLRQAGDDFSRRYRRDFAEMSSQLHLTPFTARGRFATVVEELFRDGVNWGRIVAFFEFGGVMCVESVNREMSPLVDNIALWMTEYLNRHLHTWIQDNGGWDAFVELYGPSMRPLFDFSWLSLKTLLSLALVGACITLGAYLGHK
Outline: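 Ki values derived from TR-FRET displacement of F-Bak peptide from GST-Bcl-2, detected with Tb-labelled anti-GST antibody (ex 340, em 520/495 nm). Compound dilution series started at 50 μM (2× starting concentration); room-temperature incubation 3 hours.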
`CC1(C)CCC(CN2CCN(c3ccc(C(=O)NS(=O)(=O)c4ccc(N[C@H]5CC[C@H](N(C6CC6)C6CC6)CC5)c([N+](=O)[O-])c4)c(Oc4cc5cc[nH]c5cc4F)c3)CC2)=C(c2ccc(Cl)cc2)C1` [Example 334, Trans-4-(4-{[2-(4-chlorophenyl)-4,4-dimethylcyclohex-1-en-1-yl]methyl}piperazin-1-yl)-N-[(4-{[4-(dicyclopropylamino)cyclohexyl]amino}-3-nitrophenyl)sulfonyl]-2-[(6-fluoro-1H-indol-5-yl)oxy]benzamide] gave a Ki of 0.197 nM.
`CO[C@H]1CC[C@H](CNc2ccc(S(=O)(=O)NC(=O)c3ccc(N4CCN(CC5=C(c6ccc(Cl)cc6)CC(C)(C)CC5)CC4)cc3Oc3ccc(NCC(F)F)nc3)cc2[N+](=O)[O-])CC1` [Example 375, Trans-4-(4-{[2-(4-chlorophenyl)-4,4-dimethylcyclohex-1-en-1-yl]methyl}piperazin-1-yl)-2-({6-[(2,2-difluoroethyl)amino]pyridin-3-yl}oxy)-N-[(4-{[(4-methoxycyclohexyl)methyl]amino}-3-nitrophenyl)sulfonyl]benzamide] showed a Ki of 328 nM.
Compound `CC1(C)CCC(CN2CCN(c3ccc(C(=O)NS(=O)(=O)c4ccc(N[C@H]5CC[C@H](N6CCOCC6)CC5)c([N+](=O)[O-])c4)c(Oc4cc5cc[nH]c5cc4Cl)c3)CC2)=C(c2ccc(Cl)cc2)C1` [Example 293, Trans-2-[(6-chloro-1H-indol-5-yl)oxy]-4-(4-{[2-(4-chlorophenyl)-4,4-dimethylcyclohex-1-en-1-yl]methyl}piperazin-1-yl)-N-({4-[(4-morpholin-4-ylcyclohexyl)amino]-3-nitrophenyl}sulfonyl)benzamide] has a Ki of 0.233 nM.

Same assay, conditions: GST-Bcl-2 1 nM, F-Bak peptide probe 100 nM, Tb-anti-GST antibody 1 nM; Ki by Wang's equation
Work on `CC1(C)CCC(CN2CCN(c3ccc(C(=O)NS(=O)(=O)c4ccc(NC5CCN(C6CCOCC6)CC5)c([N+](=O)[O-])c4)c(Oc4cccc(F)c4)c3)CC2)=C(c2ccc(Cl)cc2)C1` [Example 113, 4-(4-{[2-(4-chlorophenyl)-4,4-dimethylcyclohex-1-en-1-yl]methyl}piperazin-1-yl)-2-(3-fluorophenoxy)-N-({3-nitro-4-[(1-tetrahydro-2H-pyran-4-ylpiperidin-4-yl)amino]phenyl}sulfonyl)benzamide] yielded a Ki of 0.032 nM.
For `CN1CCC(Nc2ccc(S(=O)(=O)NC(=O)c3ccc(N4CCN(CC5=C(c6ccc(Cl)cc6)CC(C)(C)CC5)CC4)cc3Oc3cccc4c3ccn4C(=O)OC(C)(C)C)cc2[N+](=O)[O-])CC1` [Example 202, tert-butyl 4-(5-(4-{[2-(4-chlorophenyl)-4,4-dimethylcyclohex-1-en-1-yl]methyl}piperazin-1-yl)-2-{[({4-[(1-methylpiperidin-4-yl)amino]-3-nitrophenyl}sulfonyl)amino]carbonyl}phenoxy)-1H-indole-1-carboxylate], the Ki was 20 nM.
Compound `CC1(C)CC(c2ccc(Cl)cc2)=C(CN2CCN(c3ccc(C(=O)NS(=O)(=O)c4ccc(NCC5CCOCC5)c([N+](=O)[O-])c4)c(Oc4cc5cc[nH]c5cc4Cl)c3)CC2)CO1` [Example 275, 2-[(6-chloro-1H-indol-5-yl)oxy]-4-(4-{[4-(4-chlorophenyl)-6,6-dimethyl-5,6-dihydro-2H-pyran-3-yl]methyl}piperazin-1-yl)-N-({3-nitro-4-[(tetrahydro-2H-pyran-4-ylmethyl)amino]phenyl}sulfonyl)benzamide] has a Ki of 0.081 nM.
For `CC1(C)CCC(CN2CCN(c3ccc(C(=O)NS(=O)(=O)c4ccc(NCCCN5CCOCC5)c([N+](=O)[O-])c4)c(Oc4cc(Cl)ccc4Cl)c3)CC2)=C(c2ccc(Cl)cc2)C1` [Example 67, 4-(4-((2-(4-chlorophenyl)-4,4-dimethylcyclohex-1-en-1-yl)methyl)piperazin-1-yl)-2-(2,5-dichlorophenoxy)-N-((4-((3-morpholin-4-ylpropyl)amino)-3-nitrophenyl)sulfonyl)benzamide], the Ki was 0.807 nM.
Work on `COc1ccc(Cn2nnc3c(Oc4cc(N5CCN(CC6=C(c7ccc(Cl)cc7)CC(C)(C)CC6)CC5)ccc4C(=O)NS(=O)(=O)c4ccc(NCC5CCOCC5)c([N+](=O)[O-])c4)cccc32)cc1` [Example 342, 4-(4-{[2-(4-chlorophenyl)-4,4-dimethylcyclohex-1-en-1-yl]methyl}piperazin-1-yl)-2-{[1-(4-methoxybenzyl)-1H-1,2,3-benzotriazol-4-yl]oxy}-N-({3-nitro-4-[(tetrahydro-2H-pyran-4-ylmethyl)amino]phenyl}sulfonyl)benzamide] yielded a Ki of 3.34 nM.
For `CC1(C)CC(c2ccc(Cl)cc2)=C(CN2CCN(c3ccc(C(=O)NS(=O)(=O)c4ccc(NCC5CCOCC5)c([N+](=O)[O-])c4)c(Oc4cc5cc[nH]c5cc4F)c3)CC2)CO1` [Example 277, 4-(4-{[4-(4-chlorophenyl)-6,6-dimethyl-5,6-dihydro-2H-pyran-3-yl]methyl}piperazin-1-yl)-2-[(6-fluoro-1H-indol-5-yl)oxy]-N-({3-nitro-4-[(tetrahydro-2H-pyran-4-ylmethyl)amino]phenyl}sulfonyl)benzamide], the Ki was 0.017 nM.
With `CN1CCC(Nc2ccc(S(=O)(=O)NC(=O)c3ccc(N4CCN(CC5=C(c6ccc(Cl)cc6)CC(C)(C)CC5)CC4)cc3Oc3cccc(-c4ccc[nH]4)c3)cc2[N+](=O)[O-])CC1` [Example 197, 4-(4-{[2-(4-chlorophenyl)-4,4-dimethylcyclohex-1-en-1-yl]methyl}piperazin-1-yl)-N-({4-[(1-methylpiperidin-4-yl)amino]-3-nitrophenyl}sulfonyl)-2-[3-(1H-pyrrol-2-yl)phenoxy]benzamide] the Ki was 0.22 nM.
In the case of `CC1(C)CCC(CN2CCN(c3ccc(C(=O)NS(=O)(=O)c4ccc(NC5CCN(C6CCOCC6)CC5)c([N+](=O)[O-])c4)c(Oc4cc5cc[nH]c5c(F)c4F)c3)CC2)=C(c2ccc(Cl)cc2)C1` [Example 201, 4-(4-{[2-(4-chlorophenyl)-4,4-dimethylcyclohex-1-en-1-yl]methyl}piperazin-1-yl)-2-[(6,7-difluoro-1H-indol-5-yl)oxy]-N-({3-nitro-4-[(1-tetrahydro-2H-pyran-4-ylpiperidin-4-yl)amino]phenyl}sulfonyl)benzamide], the Ki is reported as 0.01 nM.
`CC1(C)CCC(CN2CCN(c3ccc(C(=O)NS(=O)(=O)c4ccc(NCC5CCOCC5)c([N+](=O)[O-])c4)c(Oc4ccc(OCc5ccccc5)nc4)c3)CC2)=C(c2ccc(Cl)cc2)C1` [Example 284, 2-{[6-(benzyloxy)pyridin-3-yl]oxy}-4-(4-{[2-(4-chlorophenyl)-4,4-dimethylcyclohex-1-en-1-yl]methyl}piperazin-1-yl)-N-({3-nitro-4-[(tetrahydro-2H-pyran-4-ylmethyl)amino]phenyl}sulfonyl)benzamide] gave a Ki of 79.3 nM.
`CC1(C)CCC(CN2CCN(c3ccc(C(=O)NS(=O)(=O)c4ccc(NCCN5CCOCC5)c([N+](=O)[O-])c4)c(Oc4cccc(Cl)c4F)c3)CC2)=C(c2ccc(Cl)cc2)C1` [Example 150, 2-(3-chloro-2-fluorophenoxy)-4-(4-{[2-(4-chlorophenyl)-4,4-dimethylcyclohex-1-en-1-yl]methyl}piperazin-1-yl)-N-({4-[(2-morpholin-4-ylethyl)amino]-3-nitrophenyl}sulfonyl)benzamide] showed a Ki of 0.759 nM.
`CC1(C)CCC(CN2CCN(c3ccc(C(=O)NS(=O)(=O)c4ccc(NCC5CCOCC5)c([N+](=O)[O-])c4)c(Oc4cc(Br)nc(NC(=O)OC(C)(C)C)c4)c3)CC2)=C(c2ccc(Cl)cc2)C1` [Example 372, tert-butyl 6-bromo-4-(5-(4-{[2-(4-chlorophenyl)-4,4-dimethylcyclohex-1-en-1-yl]methyl}piperazin-1-yl)-2-{[({3-nitro-4-[(tetrahydro-2H-pyran-4-ylmethyl)amino]phenyl}sulfonyl)amino]carbonyl}phenoxy)pyridin-2-ylcarbamate] was tested, and the Ki was 15 nM.
`CC1(C)CCC(CN2CCN(c3ccc(C(=O)NS(=O)(=O)c4ccc(NCC5CCOCC5)c([N+](=O)[O-])c4)c(Oc4ccccc4-c4cn[nH]c4)c3)CC2)=C(c2ccc(Cl)cc2)C1` [Example 406, 4-(4-{[2-(4-chlorophenyl)-4,4-dimethylcyclohex-1-en-1-yl]methyl}piperazin-1-yl)-N-({3-nitro-4-[(tetrahydro-2H-pyran-4-ylmethyl)amino]phenyl}sulfonyl)-2-[2-(1H-pyrazol-4-yl)phenoxy]benzamide] gave a Ki of 0.166 nM.
In the case of `CC1(C)CCC(CN2CCN(c3ccc(C(=O)NS(=O)(=O)c4ccc(NCC5CCOCC5)c([N+](=O)[O-])c4)c(Oc4cc(NC(=O)OC(C)(C)C)ncc4Br)c3)CC2)=C(c2ccc(Cl)cc2)C1` [Example 383, tert-butyl 5-bromo-4-(5-(4-{[2-(4-chlorophenyl)-4,4-dimethylcyclohex-1-en-1-yl]methyl}piperazin-1-yl)-2-{[({3-nitro-4-[(tetrahydro-2H-pyran-4-ylmethyl)amino]phenyl}sulfonyl)amino]carbonyl}phenoxy)pyridin-2-ylcarbamate], the Ki is reported as 427 nM.
In the case of `CN1CCC(Nc2ccc(S(=O)(=O)NC(=O)c3ccc(N4CCN(CC5=C(c6ccc(Cl)cc6)CC(C)(C)CC5)CC4)cc3Oc3cccc(O)c3)cc2[N+](=O)[O-])CC1` [Example 176, 4-(4-{[2-(4-chlorophenyl)-4,4-dimethylcyclohex-1-en-1-yl]methyl}piperazin-1-yl)-2-(3-hydroxyphenoxy)-N-({4-[(1-methylpiperidin-4-yl)amino]-3-nitrophenyl}sulfonyl)benzamide], the Ki is reported as 0.24 nM.
`CN1CCC(Nc2ccc(S(=O)(=O)NC(=O)c3ccc(N4CCN(CC5=C(c6ccc(Cl)cc6)CC(C)(C)CC5)CC4)cc3Oc3ccc(F)cc3Cl)cc2[N+](=O)[O-])CC1` [Example 61, 2-(2-chloro-4-fluorophenoxy)-4-(4-((2-(4-chlorophenyl)-4,4-dimethylcyclohex-1-en-1-yl)methyl)piperazin-1-yl)-N-((4-((1-methylpiperidin-4-yl)amino)-3-nitrophenyl)sulfonyl)benzamide] showed a Ki of 0.22 nM.
Work on `CN1CCN(Nc2ccc(S(=O)(=O)NC(=O)c3ccc(N4CCN(CC5=C(c6ccc(Cl)cc6)CC(C)(C)CC5)CC4)cc3Oc3cc4cc[nH]c4cc3Cl)cc2[N+](=O)[O-])CC1` [Example 244, 2-[(6-chloro-1H-indol-5-yl)oxy]-4-(4-{[2-(4-chlorophenyl)-4,4-dimethylcyclohex-1-en-1-yl]methyl}piperazin-1-yl)-N-({4-[(4-methylpiperazin-1-yl)amino]-3-nitrophenyl}sulfonyl)benzamide] yielded a Ki of 1.73 nM.
